From PubChem BioAssay (NCI)
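1) Cells in 96-well plates. 2) Compound, 48 h, 5 concentrations. 3) Linear interpolation between surrounding doses. 4) Unreached endpoint = highest concentration. The concentration for 50% growth inhibition is given as GI50. At the TGI there is no net growth.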

Experiments:
Test in all cases: growth of human tumour cells (NCI), 48 h
[1] = tested on: RXF 393 renal
[2] = tested on: NCI-H522 lung
[3] = tested on: NCI/ADR-RES ovarian
[4] = tested on: KM12 colon
[5] = tested on: HCC-2998 colon
[6] = tested on: CCRF-CEM leukemia
[7] = tested on: EKVX NSCLC
[8] = tested on: MDA-MB-231 breast
[9] = tested on: SNB-75 CNS
[10] = tested on: SR leukemia
[11] = tested on: UACC-257 melanoma
[12] = tested on: DU-145 prostate
[13] = tested on: TK-10 renal
[14] = tested on: SK-OV-3 ovarian
[15] = tested on: UACC-62 melanoma
[16] = tested on: SK-MEL-2 melanoma
[17] = tested on: 786-0 renal
[18] = tested on: UO-31 renal
[19] = tested on: MALME-3M melanoma
[20] = tested on: A498 renal
[21] = tested on: HT29 colon
[22] = tested on: M14 melanoma
[23] = tested on: T-47D breast
[24] = tested on: PC-3 prostate
[25] = tested on: SF-268 CNS
[26] = tested on: LOX IMVI melanoma
[27] = tested on: SW-620 colon
[28] = tested on: IGROV1 ovarian
[29] = tested on: CAKI-1 renal
[30] = tested on: OVCAR-4 ovarian
[31] = tested on: SN12C renal
[32] = tested on: NCI-H226 lung
[33] = tested on: A549 NSCLC
[34] = tested on: SNB-19 CNS
[35] = tested on: HOP-62 NSCLC
[36] = tested on: K-562 leukemia
[37] = tested on: OVCAR-5 ovarian
[38] = tested on: SK-MEL-28 melanoma
[39] = tested on: HS 578T breast
[40] = tested on: NCI-H23 lung
[41] = tested on: OVCAR-8 ovarian
[42] = tested on: SK-MEL-5 melanoma
[43] = tested on: BT-549 breast
[44] = tested on: MOLT-4 leukemia
[45] = tested on: HOP-92 NSCLC
[46] = tested on: U251 CNS
[47] = tested on: HL-60(TB) leukemia
[48] = tested on: ACHN renal
[49] = tested on: MDA-MB-435
[50] = tested on: COLO 205 colon
[51] = tested on: SF-539 CNS
[52] = tested on: SF-295 CNS
[53] = tested on: HCT-15 colon
[54] = tested on: MCF7 breast
[55] = tested on: RPMI-8226 leukemia
[56] = tested on: HCT-116 colon
[57] = tested on: NCI-H460 lung

Which results are given for `NC(=O)n1c(=O)n(-c2cccc(C(F)(F)F)c2)c(=O)c2cc(-c3ccc(F)cc3F)ccc21`?
GI50 [1]: 1230 nM; TGI [1]: 3130 nM; GI50 [2]: 493 nM; TGI [2]: 3740 nM; GI50 [3]: 2060 nM; TGI [3]: 8870 nM; GI50 [4]: 2550 nM; TGI [4]: 7150 nM; GI50 [5]: 2760 nM; TGI [5]: 9260 nM; GI50 [6]: 3070 nM; TGI [6]: 19000 nM; GI50 [7]: 2830 nM; TGI [7]: 9590 nM; GI50 [8]: 2120 nM; TGI [8]: 6860 nM; GI50 [9]: 1810 nM; TGI [9]: 7470 nM; GI50 [10]: 580 nM; TGI [10]: 4600 nM; GI50 [11]: 1060 nM; TGI [11]: 4540 nM; GI50 [12]: 3530 nM; TGI [12]: 15500 nM; GI50 [13]: 4040 nM; TGI [13]: 9740 nM; GI50 [14]: 1600 nM; TGI [14]: 4420 nM; GI50 [15]: 363 nM; TGI [15]: 1690 nM; GI50 [16]: 750 nM; TGI [16]: 2820 nM; GI50 [17]: 1940 nM; TGI [17]: 4540 nM; GI50 [18]: 2190 nM; TGI [18]: 8440 nM; GI50 [19]: 1440 nM; TGI [19]: 5300 nM; GI50 [20]: 512 nM; TGI [20]: 1930 nM; GI50 [21]: 4380 nM; TGI [21]: 18800 nM; GI50 [22]: 1340 nM; TGI [22]: 3800 nM; GI50 [23]: 1610 nM; TGI [23]: 6280 nM; GI50 [24]: 1070 nM; TGI [24]: 5730 nM; GI50 [25]: 2570 nM; TGI [25]: 13000 nM; GI50 [26]: 1680 nM; TGI [26]: 3760 nM; GI50 [27]: 2650 nM; TGI [27]: 10400 nM; GI50 [28]: 2120 nM; TGI [28]: 15100 nM; GI50 [29]: 1900 nM; TGI [29]: 6380 nM; GI50 [30]: 2810 nM; TGI [30]: 16500 nM; GI50 [31]: 1270 nM; TGI [31]: 7240 nM; GI50 [32]: 1310 nM; TGI [32]: 3990 nM; GI50 [33]: 3190 nM; TGI [33]: 11800 nM; GI50 [34]: 1510 nM; TGI [34]: 12700 nM; GI50 [35]: 1960 nM; TGI [35]: 4790 nM; GI50 [36]: 771 nM; TGI [36]: 80300 nM; GI50 [37]: 3380 nM; TGI [37]: 14400 nM; GI50 [38]: 1390 nM; TGI [38]: 8550 nM; GI50 [39]: 2120 nM; TGI [39]: 7060 nM; GI50 [40]: 1230 nM; TGI [40]: 4630 nM; GI50 [41]: 1840 nM; TGI [41]: 9650 nM; GI50 [42]: 338 nM; TGI [42]: 1210 nM; GI50 [43]: 315 nM; TGI [43]: 1120 nM; GI50 [44]: 2220 nM; TGI [44]: 6160 nM; GI50 [45]: 149 nM; TGI [45]: 568 nM; GI50 [46]: 2010 nM; TGI [46]: 11100 nM; GI50 [47]: 1270 nM; TGI [47]: 7520 nM; GI50 [48]: 2420 nM; TGI [48]: 10100 nM; GI50 [49]: 1890 nM; TGI [49]: 7330 nM; GI50 [50]: 3350 nM; TGI [50]: 10600 nM; GI50 [51]: 2110 nM; TGI [51]: 8500 nM; GI50 [52]: 1680 nM; TGI [52]: 3510 nM; GI50 [53]: 790 nM; TGI [53]: 2680 nM; GI50 [54]: 1740 nM; TGI [54]: 6470 nM; GI50 [55]: 990 nM; TGI [55]: 5120 nM; GI50 [56]: 559 nM; TGI [56]: 1980 nM; GI50 [57]: 1390 nM; TGI [57]: 6800 nM
